Results on 13 molecules are retold here after patent US11192900B2, “Substituted 1,6-dihydropyridinones and 1,2-dihydroisoquinolinones as bet inhibitors” (NUVATION BIO INC., priority 2018, dated 2021).

Test [1] addresses BRD4-1 (Homo sapiens (Human), UniProt O60885). Briefly: Bromodomain and Extraterminal Domain (BET) Binding Assay. Particulars: Table 3; read-out: BRD4-1 IC50. The method, then:
(§1) The bromodomain binding assays were performed by Reaction Biology Corp., Malvern, Pa., USA (www.reactionbiology.com). The BET binding assays were conducted in 384 well microplates in assay buffer (50 mM HEPES-HCl, pH 7.5, 100 mM NaCl, 1 mg/ml BSA, 0.05% CHAPS, and 0.5% DMSO) with compounds added as DMSO stocks at a single concentration or with 10-point dose response titrations. BET protein or assay buffer were delivered to the appropriate wells of the microplate. Test compound was then delivered by acoustic technology via a Labcyte Echo550 liquid handler. The microplate was centrifuged for 5 min and pre-incubated for 30 min at RT with gentle shaking. The ligand (histone H4 peptide (1-21) K5/8/12/16Ac-biotin) was delivered and the microplate was again centrifuged for 5 min and allowed to incubate for 30 min at RT with gentle shaking. Donor beads were then added in the absence of light and the microplate was centrifuged and gently shaken. After 5 min, acceptor beads were added in the absence of light and the microplate was centrifuged and gently shakenin the dark for 60 min. The microplate was read using a Perkin Elmer EnSpire Alpha plate reader (λEx/λEm=680/520-620 nm). Percent inhibition was calculated relative to positive and negative controls on a per plate basis. For titration experiments, IC50 values were determined by fitting the percent inhibition versus compound concentration.

For test [2], the target named is BRD4-2 (Homo sapiens (Human), UniProt O60885). The description is as above. Particulars: Table 3; read-out: BRD4-2 IC50. The method, then:
as §1

Test [3] deals with c-Myc. As to the kind of experiment: Measurement of c-Myc suppression after washoff (Western blot). The class given is cell-based, human. Particulars: MV4-11, 2 μM for 2 hr, washed, further 6 hr. On the procedure: MV4-11 cells were incubated with 2 μM of JQ1, mivebresib or a test compound for 2 hr. The cells were then washed twice with fresh culture medium and further cultured for another 6 hr. Cells were extracted with SDS sample buffers and then subjected to Western blot analysis to measure c-Myc. Compounds 2, 3, 12, 17, 409, 411 and 412 were tested in these assays.

Test [4] relates to MV-4-11 human acute myeloid leukemia cell line. Briefly: Second cell viability assay in MV-4-11 (Cell Titer-Glo). The class given is cell-based. Particulars: MV4-11, Cell Titer-Glo, 72 hrs, read-out: Cell Viability IC50 in MV4-11 cells. On the procedure:
The effects of test compounds were studied in a second cell viability assay in the MV-4-11 human acute myeloid leukemia cell line. The cells were harvested during the logarithmic growth period and counted. Cells were seeded at a count of 15000 cells per well/100 μl. After seeding, cells were incubated at 37° C., 5% CO2 for 1 hr. Cells were treated with test compounds at 8 concentrations within a desired concentration range (e.g. 5 nM-[…]) for generation of dose response curves by preparing serial dilutions of the test compound in DMSO which were further diluted with culture medium and then added to each well. The plate was further incubated for another 72 hrs in a humidified incubator at 37° C. and 5% CO2. The assay was terminated by addition of Cell Titer-Glo reagent (Promega, Madison, Wis.) at ¼ the volume of total medium per well. Contents were mixed, the plate was incubated for 10 min at room temperature and luminescence was measured. Cell viability data were plotted using GraphPad Prism (GraphPad Software, Inc., San Diego, Calif.). In addition, a nonlinear regression model with a sigmoidal dose response and variable slope within GraphPad Prism was used to calculate the IC50 value of individual test compounds.

The test system of test [5] is 22Rv1 cells. Briefly: 22Rv1 cell proliferation assay with wash-off or mock wash-off. It counts as cell-based, human. The method, then: A 22Rv1 cell proliferation assay was used to assess durability of test compound effects after transient exposure of test compound to cells. 22Rv1 cells were seeded at 3000 cells per well/100 μl in a 96-well plate and incubated with test compounds at specified dilutions for 2 hr at 37° C. and 5% CO2. Following the incubation, test compound was washed off and replacement culture medium without test compound was added. Wash-off was performed by three PBS washes. The cells were incubated for an additional 96 hr at 37° C. and 5% CO2. In parallel, a mock wash-off was performed with cells that were treated identically except that the replacement culture medium contained test compound. The plate was incubated for 4 hr at 37° C., 5% CO2 and fluorescence was measured using excitation and emission wavelengths of 535 and 590 nm, respectively. Cell viability data were plotted using GraphPad Prism (GraphPad Software, Inc., San Diego, Calif.). In addition, a nonlinear regression model with a sigmoidal dose response and variable slope within GraphPad Prism was used to calculate the IC50 value of individual test compounds.

The test system of test [6] is IEC-6 rat intestinal epithelial cell line. As to the kind of experiment: IEC-6 cell viability, Protocol B (toxicity to non-cancerous cells). It counts as cell-based. Particulars: IEC-6, 4000 cells per well, 48 hrs. On the procedure: The effects of test compounds were also studied in the IEC-6 rat intestinal epithelial cell line to assess potential toxicity to non-cancerous cells. The cells were harvested during the logarithmic growth period and counted. In Protocol A, cells were seeded at a count of 3000 cells per well/100 μl in a 96-well plate. After seeding, cells were incubated at 37° C., 5% CO2 for 24 hr. Cells were treated with test compounds at 8 concentrations within a desired concentration range (e.g. 5 nM-10 μM) for generation of dose response curves by preparing serial dilutions of the test compound in DMSO which were further diluted with culture medium and then added to each well. The plate was further incubated for another 96 hrs in humidified incubator at 37° C. and 5% CO2. The assay was terminated by addition of resazurin (# R7017, Sigma). The plate was incubated for 4 hr at 37° C., 5% CO2 and fluorescence was measured using excitation and emission wavelengths of 535 and 590 nm, respectively. Cell viability data were plotted using GraphPad Prism (GraphPad Software, Inc., San Diego, Calif.). In addition, a nonlinear regression model with a sigmoidal dose response and variable slope within GraphPad Prism was used to calculate the IC50 value of individual test compounds. Protocol B was the same as Protocol A except that cells were seeded at a count of 4000 cells per well/100 μl in a 96-well plate, and the incubation with test compound was for 48 hrs instead of 96 hrs.

Each structure is given as a SMILES string. Like-named read-outs stand apart in the source and are kept apart here. Some results are limits rather than exact numbers.

For `C#CC(=O)Nc1ccc(Oc2ccc(F)cc2F)c(-c2cc(NC)c(=O)n(C)c2)c1` [Compound 2, N-(4-(2,4-difluorophenoxy)-3-(1-methyl-5-(methylamino)-6-oxo-1,6-dihydropyridin-3-yl)phenyl)propiolamide], the IC50 in test [1] was 0.052 µM; in test [2], 0.117 µM. Further, in test [3], the “c-Myc suppression activity after washoff” value is listed as “less durable or no suppression activity”.
Consider `C=CS(=O)(=O)Nc1ccc(Oc2ccc(F)cc2F)c(-c2cc(N)c(=O)n(C)c2)c1` [Compound 17, N-(3-(5-amino-1-methyl-6-oxo-1,6-dihydropyridin-3-yl)-4-(2,4-difluorophenoxy)phenyl)ethenesulfonamide], for which the values for the IC50 in test [2] and in test [4] (Homo sapiens) were 0.119 µM and 0.084 µM, respectively. The “c-Myc suppression activity after washoff” value in test [3] is listed as “sustained c-Myc suppression activity”.
Consider `C=CS(=O)(=O)Nc1ccc(Oc2ccc(F)cc2F)c(-c2cn(C)c(=O)cc2OC)c1` [Compound 406, N-(4-(2,4-difluorophenoxy)-3-(4-methoxy-1-methyl-6-oxo-1,6-dihydropyridin-3-yl)phenyl)ethenesulfonamide], for which the IC50 in test [1] was found to be 0.022 µM; in test [2] it was 0.003 µM; in test [4] (Homo sapiens), 0.114 µM; in test [5] (Homo sapiens, 22Rv1, 2 hr exposure, three PBS washes, additional 96 hr without compound, read-out: Wash-off IC50), 0.415 µM; in test [5] (Homo sapiens, 22Rv1, 2 hr, replacement medium with test compound, additional 96 hr, read-out: Mock wash-off IC50), 0.255 µM.
Consider `C=CC(=O)Nc1ccc(Oc2ccc(F)cc2F)c(-c2cn(C)c(=O)cc2OC)c1` [Compound 407, N-(4-(2,4-difluorophenoxy)-3-(4-methoxy-1-methyl-6-oxo-1,6-dihydropyridin-3-yl)phenyl)acrylamide], for which the half-maximal inhibitory concentration (IC50) in test [1] came out at 0.183 µM; in test [2], 0.011 µM; in test [4] (Homo sapiens) it was 0.051 µM; in test [6] (Rattus norvegicus), 0.693 µM. Further, the “c-Myc suppression activity after washoff” value in test [3] is “less durable activity”.
In the case of `C=CC(=O)Nc1ccc(Oc2ccc(OC)cc2)c(-c2cn(C)c(=O)c3ccccc23)c1` [Compound 409, N-(4-(4-methoxyphenoxy)-3-(2-methyl-1-oxo-1,2-dihydroisoquinolin-4-yl)phenyl)acrylamide], the IC50 in test [1] was found to be 0.479 µM; in test [2], 0.075 µM; in test [4] (Homo sapiens), 0.253 µM. Moreover, the “c-Myc suppression activity after washoff” value in test [3] is recorded as “rebound in c-Myc expression”.
As to `C=CC(=O)Nc1ccc(Oc2c(C)cccc2C)c(-c2cc(NC)c(=O)n(C)c2)c1` [Compound 411, N-(4-(2,6-dimethylphenoxy)-3-(1-methyl-5-(methylamino)-6-oxo-1,6-dihydropyridin-3-yl)phenyl)acrylamide], the results for the IC50 in test [1], in test [2] and in test [4] (Homo sapiens) were 0.347 µM, 0.01 µM and 0.074 µM, respectively. The “c-Myc suppression activity after washoff” value in test [3] is given as “less durable or no suppression activity”.
The matching figures for `C=CC(=O)Nc1ccc(Oc2c(C)cccc2C)c(-c2cn(C)c(=O)c3cc(C(=O)NCC)sc23)c1` [Compound 412, 7-(5-acrylamido-2-(2,6-dimethylphenoxy)phenyl)-N-ethyl-5-methyl-4-oxo-4,5-dihydrothieno[3,2-c]pyridine-2-carboxamide]: 1.74 µM, 0.004 µM, 0.025 µM and “less durable or no suppression activity”.
On to `C=CC(=O)Nc1ccc(Oc2c(C)cccc2C)c(-c2cn(C)c(=O)cc2OC)c1` [Compound 584, N-(4-(2,6-dimethylphenoxy)-3-(4-methoxy-1-methyl-6-oxo-1,6-dihydropyridin-3-yl)phenyl)acrylamide], for which the IC50 is 0.226 µM in test [1], 0.001 µM in test [2] and 0.033 µM in test [4] (Homo sapiens). Also, the “c-Myc suppression activity after washoff” value in test [3] is on record as “less durable activity”.
The matching figures for `C=CC(=O)Nc1ccc(Nc2c(C)cccc2C)c(-c2cn(C)c(=O)c3cc(C(=O)NCC)sc23)c1` [Compound 585, 7-(5-acrylamido-2-(2,6-dimethylphenylamino)phenyl)-N-ethyl-5-methyl-4-oxo-4,5-dihydrothieno[3,2-c]pyridine-2-carboxamide]: 5.07 µM, 0.043 µM, 0.221 µM and “less durable activity”.
The corresponding values for `C=CC(=O)Nc1ccc(Oc2c(C)cc(F)cc2C)c(-c2cn(C)c(=O)c3cc(C(=O)NCC)sc23)c1` [Compound 588, 7-(5-acrylamido-2-(4-fluoro-2,6-dimethylphenoxy)phenyl)-N-ethyl-5-methyl-4-oxo-4,5-dihydrothieno[3,2-c]pyridine-2-carboxamide] are 2.85 µM, 0.006 µM, 0.082 µM and “less durable activity”.
Consider `CCS(=O)(=O)Nc1ccc(Oc2ccc(F)cc2F)c(-n2cc(Cl)c(=O)c3ccccc32)c1` [Compound 661, N-(3-(3-chloro-4-oxoquinolin-1(4H)-yl)-4-(2,4-difluorophenoxy)phenyl)ethanesulfonamide], for which the IC50 in test [1] is 0.02 µM; in test [2] it was 0.005 µM; in test [4] (Homo sapiens) it was 0.071 µM; in test [6] (Rattus norvegicus) it was 0.273 µM.
Regarding `CCS(=O)(=O)Nc1ccc(Oc2ccc(F)cc2F)c(-n2ccc(=O)c3ccccc32)c1` [Compound 709, N-(4-(2,4-difluorophenoxy)-3-(4-oxoquinolin-1(4H)-yl)phenyl)ethanesulfonamide], the half-maximal inhibitory concentration (IC50) in test [1] came out at 1.21 µM; in test [2] it was 0.093 µM; in test [4], 0.979 µM; in test [6], 2.9 µM.
As for `Cc1sc2c(c1C)C(c1ccc(Cl)cc1)=N[C@@H](CC(=O)OC(C)(C)C)c1nnc(C)n1-2` [JQ1, reference compound], the IC50 is more than 10 µM in test [5] (22Rv1, 2 hr exposure, three PBS washes, additional 96 hr without compound, read-out: Wash-off IC50) and 0.071 µM in test [5] (22Rv1, 2 hr, replacement medium with test compound, additional 96 hr, read-out: Mock wash-off IC50).

For orientation: IC50 means the midpoint of a concentration-inhibition curve.
